# Source: patent US20020055130A1, “Method and product for regulating apoptosis” (National Jewish Center for Immunology and Respiratory …, priority 1997, published 2002)
# Experiments:
# Swiss 3T3 cells = test: MEKK-induced apoptosis, microinjected Swiss 3T3 cells; format: cell-based
# Experimental: (§1) Cells were prepared for the apoptosis studies as follows. Swiss 3T3 cells and REF52 cells were transfected with an expression plasmid encoding β-Galactoctosidase (β-Gal) detection of injected cells. One set of β-Gal transfected cells were then microinjected with an expression vector encoding MEKK1 370-738 protein. Another set of β-Gal transfected cells were then microinjected with an expression vector encoding truncated BXB-Raf protein.
# (§2) A first group of transfected Swiss 3T3 cells and REF52 cells were treated with 50 μM beauvericin for 6 hours at 37° C. Beauvericin is a compound known to induce apoptosis in mammalian cells. A second group of cells were treated with a control buffer lacking beauvericin. The treated cells were then fixed in parafornaldehyde and permeabilized with saponin using protocols standard in the art. The permeabilized cells were then labelled by incubating the cells with a fluorescein-labelled anti-tubulin antibody (1:500; obtained from GIBCO, Gaithersburg, Md.) to detect cytoplasmic shrinkage or 10 μM propidium iodide (obtained from Sigma, St. Louis, Mo.) to stain DNA to detect nuclear condensation. The labelled cells were then viewed by differential fluorescent imaging using a Nikon Diaphot fluorescent microscope. […]
# REF52 cells = test: MEKK-induced apoptosis, microinjected REF52 cells; format: cell-based
# Experimental: as §1, §2
# p38 kinase = p38 kinase activation, transfected HEK293 cells; format: cell-based, Human; conditions: transfection in HEK293 cells
# HEK293 cells = test: MEKK1 staining and TdT-mediated dUTP incorporation (DNA fragmentation) in transfected cells; format: cell-based, Human; conditions: after 48 hr
# Experimental: Human embryonal kidney 293 cells (HEK293) stably expressing the EBNA-1 protein from Epstein-Barr virus (Invitrogen) were grown in Dulbecco's modified Eagle's medium (DMEM) supplemented with 100 U/ml penicillin/streptomycin and containing 10% bovine calf serum (BCS). The cells were transfected using lipofectamine (Gibco).
# Cells were grown on glass coverslips and transfected using lipofectamine. Two days after transfection, the medium was removed and the cells were fixed in 2% paraformaldehyde, 3% sucrose in phosphate buffered saline (PBS) for 10 min at room temperature. Following three washes with PBS, the cells were permeabilized for 10 min with 2% Triton-X100 in PBS. After three PBS washes, the cells were blocked with filtered cultured medium for 15 min. The coverslips were then incubated 1 hour in TdT reaction mix (200 mM potassium cacodylate, 25 mM Tris.HCl, pH 6.6, 250 μg/ml BSA, 5 mM CoCl2, 0.25 U/μl TdT [Boehringer], 10 μM biotin-dUTP [Boehringer]) at 37° C. in a humidifed atmosphere. […] Images were taken using a Leica DMRXA microscope and analyzed with the SlideBook v2.0 software (Intelligent Imaging Innovations, Denver). […]
# p42/p44 MAPK = test: MAPK assay (EGFR662-681 peptide), L929 cells; format: cell-based, murine
# Experimental: MAPK Assay MAPK activity was measured exactly as described previously (Gardner, A. M., et al. (1994) Meth. Enzymol. 238:258-270) with the exception that MonoQ FPLC fractionation was replaced by step elution from a DEAE-Sephacel column using 0.5 M NaCl in loading buffer. The eluate was assayed in triplicate using the epidermal growth factor receptor 662-681 peptide (EGFR662-681) as a selective substrate for MAPK activity (Heasley, L. E., et al. (1994) American Journal of Physiology (Renal Fluid Electrolyte Physiol. 36) 267:F366-F373).
# B-Raf = test: Raf activation assay (kinase-inactive MEK-1 phosphorylation), L929 cells; format: cell-based, murine
# Experimental: (§3) RafActivation Assay Cells were serum starved and challenged in the presence or absence of the appropriate cytokine or growth factors, as described above. Cells were lysed by scraping in ice cold RIPA buffer (50 mM Tris-HCl, pH 7.2, 150 mM NaCl, 0.1% SDS, 0.5% sodium deoxycholate, 1.0% Triton X-100, 10 mM sodium pyrophosphate, 25 mM β-glycerophosphate, 2 mM sodium vanadate, 2.1 µg/ml aprotinin) and the nuclei were pelletted. The supernatants were normalized for protein content and precleared with protein A Sepharose prior to immunoprecipitation with rabbit antiserum to the C terminus of C-Raf, rabbit anti-serum to A-Raf or rabbit antiserum to B-Raf (Santa Cruz Biotech., Santa Cruz, Calif.) and protein A Sepharose for 2-3 hr at 4° C. The beads were washed twice with ice cold RIPA and twice with PAN. A third of the immunoprecipitate was diluted with SDS sample buffer and used for immunoblot analysis. […] Wild-type recombinant MEK-1 was autophosphorylated in parallel as a marker. Reactions were terminated by the addition of 12.5 μl 5× SDS sample buffer, boiled, and subjected to SDS-PAGE and autoradiography.
# C-Raf = test: as above; format: cell-based, murine
# Experimental: as §3
# L929 fibroblasts = test: TNF and MEKK1COOH synergy, percentage of apoptotic cells (Lac Switch clones); format: cell-based, murine; conditions: control L929 cells (4.1 LAC1), presence and absence of IPTG
# Excerpt: Approximately 20% of control L929 cells became apoptotic upon TNF exposure either in the presence and absence of IPTG. In L929 cells expressing the MEKK1COOH domain, exposure to TNF and IPTG increased the percentage of apoptotic cells to 40%, approximately a 2-fold increase.
# JNK = JNK assay (solid state kinase assay with GST-Jun), L929 cells; format: cell-based, murine
# Experimental: JNK assay. JNK activity was measured using a solid state kinase assay in which glutathione S-transferase-c-Jun(1-79) (GST-JUN) cound to glutathione-Sepharose 4B beads was used to affinity pruify JNK and then JNK activity was measured in an in vitro kinase assay using the sepharose bound GST-Jun as a substrate (Hibi, M., et al. (1993) Genes & Development 7:2135-2148). Stimulated or unstimulated cells were lysed in 0.5% Nonidet P-40, 20 mM HEPES pH 7.2, 100 mM NaCl, 2 mM dithiothreitol, lmM EDTA, 1.0 mM phenylmethylsulfonylfluoride, 1 μg/ml aprotinin and the nuclei pelleted. Lysates were normalized for protein content. […] Binding to GST-Jun efficiently isolates the two major forms of JNK (p45and p55) and under the conditions used JNK isolation was linear for 10-250 μg of cell lysate. The lysates were rotated at 4° C. for 1-3 h. Beads were washed twice in lysis buffer and then twice in PAN (10 mM PIPES, pH 7.0, 100 mM NaCl, 21 μg/ml aprotinin). Kinase reactions were carried out at 30° C. for 15 min in 20 mM Hepes pH 7.2, 20 mM β-glycerophosphate, 10 mMp-nitrophenyl phosphate, 10 mM MgCl2, 1 mM dithiothreitol, 50 μm sodium vanadate, 10 μCi γ^32P-ATP 4300 Ci/mmole. The kinase reaction was linear from 0-30 min.
# L929 cells = test: TNFα-mediated apoptosis of L929 cells (neutral red assay, propidium iodide staining); format: cell-based, murine
# Experimental: Cell lines and culture. L929 cells (ATCC CCL1 were maintained in Dulbecco's modified Eagle's medium with 5% newborn claf serum and 5% bovine calf serum (BCS) supplemented with 100 ug/ml streptomycin and 100U/ml penicillin. The cells were grown in 10 cm dishes at 37° C. in 7.5% CO2. Cells were made quiescent where indicated by incubation in Dulbecco's modified Eagle's medium and 0.1% bovine serum albumin for 24 h. Recombinant murine TNFα and recombinant humanbFGF (147aa) were from R&D Systems, Minneapolis, Minn. Cells were pretreated where indicated with the MEK-1 inhibitor PD#098059 (Parke-Davis Pharmaceutical Corp. Ann Arbor, Mich.) for 1 h at 37° C. Cells were stimulated by incubation with the indicated cytokine or growth factor for various times at 37° C. […] Stimulation was stopped by rinsing the plates twice with ice cold phosphate buffered saline (PBS) and lysing the cells in the appropriate lysis buffer. Cells were scraped from the plates and nuclei were pelleted for 10 min at 14,000 RPM in a microcentrifuge.
# Neutral Red Assay Uptake of the dye neutral red was used as one measure of cell viability following cytokine or growth factor treatment (Finter, N. B. (1969) J. Gen Virol. 5:419-427). 1.5×10^4-2.5×10^5 L929 cells/well were plated in 12 well tissue culture dishes in 1.25 ml of media. Cells were treated for 15-20 hr with various concentrations of TNFα and/or bFGF. 2.5 μl of 1% neutral red was added to the wells and incubated for 2 hr at 37° C. PBS. The neutral red was extracted with 1.0 ml of 50% ethanol, 50 mM Na-citrate pH 4.2 and absorbency was measured at […].
# Propidium iodide staining Cells were plated on glass chamber slides (Nunc, Naperville, Ill.) at a concentration of 0.2-0.6×10^5 cells/ml. Ras expression was induced with 5 mM IPTG in Dulbecco's modified Eagle's medium with 0.1% BCS for 8-12 hr. Cells were exposed to TNFα (5 ng/ml) and/or bFGF (500 pg/ml) in Dulbecco's modified Eagle's medium with 0.1% BCS for 16 hr. The parental LACI expressing cell line (see below) was used as a control. Cells were washed twice in PBS, fixed in acetone:methanol (1:1) −20° C. for 5 min, air dried, washed twice in PBS, stained with 1 μg/ml propidium iodide (PI) in PBS for 20 min, washed in PBS, washed in H2O and mounted in 25% glycerol/PBS. PI fluorescence was observed using a Nikon inverted microscope equipped with epifluorescence and a […] filter. Images were analyzed using IP lab.
substance,measurement,setting,value
MEKK1 protein: MEKK1 370-738 protein expressed from a microinjected expression vector,apoptotic morphology of expressing cells,Swiss 3T3 cells,underwent cytoplasmic shrinkage and nuclear condensation leading to apoptotic death
same,apoptotic morphology of expressing cells,REF52 cells,underwent cytoplasmic shrinkage and nuclear condensation leading to apoptotic death
"MEKK1: full length 196 kDa mouse MEKK1, HA-tagged, expressed by transfection",p38 kinase activation,p38 kinase,did not activate the p38 kinase
same,MEKK1-expressing cells apoptotic,HEK293 cells,about 30%
TNFα,concentration required to stimulate p42/p44 MAPK 2-3 fold,p42/p44 MAPK,Greater than 10 ng/ml
same,time to maximal stimulation of p42/p44 MAPK activity,p42/p44 MAPK,5 to 10 min
same,MAPK activity stimulated above basal,p42/p44 MAPK; 1 ng/ml,20%
same,effect on bFGF stimulation of MAPK activity,p42/p44 MAPK; L929 cells,little or no effect on bFGF stimulation of MAPK activity
same,MAPK activity,"p42/p44 MAPK; L929 cells, TNFα 1 ng/ml where stated",only modest stimulatory effects
same,B-Raf activation,B-Raf,does not significantly activate
same,C-Raf activation,C-Raf,does not significantly activate
same,percentage of apoptotic cells,L929 fibroblasts,Approximately 20%
same,concentration giving maximal JNK activation,JNK,1 ng/mL
same,time of peak JNK activity,JNK,10 to 15 min
same,JNK activation,JNK; 0.1 ng/ml,greater than four-fold
same,time required to induce a similar level of L929 cell death,L929 cells; 1 ng/ml,24 to 48 h
same,L929 cells being apoptotic,"L929 cells; 10 ng/ml, 15 hr",greater than 40%
